Test [1] concerns the target T1, HER3 (Homo sapiens, UniProt P21860).
T1 construct: endogenous in cells; host or cells: OVCAR8
Kind of test: HER3/ERBB3 degradation (western blot, OVCAR8 cells). It counts as cell-based. How it is done:
FIG. 10 illustrates a Western blot of Compound 102-related degradation of ERBB3.
In various embodiments, treatment with PROTAC was performed in one of two ways: 1) For experiments involving >16 h exposure to compound, a 1000× stock was added to cells followed by gentle agitation; 2) For shorter treatments, a 2× stock was added to an equal volume of cells to ensure uniform drug exposure. For immortalized cell lines, 2×10^6 cells per treatment condition were collected and washed once with ice cold PBS (IX), followed by lysis in buffer containing 20 mM Tris [pH 8.0], 0.25% sodium deoxycholate, 1% Triton X-100, supplemented with protease (Roche) and phosphatase inhibitors (10 mM NaF, 2 mM Na3VO4, 10 mM β-glycerophosphate, 10 mM Na-pyrophosphate). Lysates were spun at 15,000×g for 10 min at 4° C. and supernatant was quantified for total protein content using the Pierce BCA Protein Assay (Thermo Fisher Scientific). 30 μg of protein was loaded onto 12% SDS-PAGE gels or 4-15% Mini-PROTEAN TGX precast gradient gels (Bio-Rad), transferred onto nitrocellulose membranes, and probed with the specified primary antibodies overnight with rocking at 4° C. in 1×TBS-T containing 5% non-fat milk.
(§1) Either anti-rabbit or anti-mouse HRP-conjugated secondary antibodies (Pierce) were incubated with the membranes for 1 h at room temperature at 1:10,000 dilutions in 5% non-fat milk in IX TBS-T. Imaging was performed using the ECL Prime chemiluminescent western blot detection reagents (Amersham) followed by visualization with the Bio-Rad ChemiDoc imaging instrument. All western blots were subsequently processed and quantified using the accompanying Bio-Rad Image Lab software. Primary antibodies used were: Anti-actin antibody (Cat. #MA 1-744) purchased from ThermoFisher Scientific; anti-BTK (Cat. #8547), anti-pBTK (Y223, Cat. #5082), anti-ITK (Cat. #2380), anti-GAPDH (Cat. #5179), anti-IKZF1 (Cat. #9034), and anti-IKZF3 (Cat. #15103) antibodies purchased from Cell Signaling Technology. All antibodies were used at 1:1,000 dilutions in 5% non-fat milk in 1×TBS-Tween (TBS-T) or Blotto blocker (Thermo Scientific) unless otherwise noted in supplier specifications.

The target of test [2] is BTK (Homo sapiens, UniProt Q06187). Kind of test: BTK degradation in NAMALWA cells (immunoblot). It counts as cell-based. Set-up: host or cells: NAMALWA. Particulars: NAMALWA cells; for DC50: concentration needed to degrade 50% of the total pool of BTK. Here is the method:
NAMALWA and Jurkat cell lines were purchased from ATCC and cultured according to supplier guidelines at 37° C. […] Wild-type and C481S BTK XLA cell lines were cultured as previously described (39). Written, informed consent was obtained prior to the collection of cells from CLL patients using the IWCLL2008 criteria. Isolation of mononuclear cells from peripheral blood was prepared using density gradient centrifugation. B-cells were then negatively selected ([…] Technologies). […] They were maintained at 37° C. in 5% CO2.
Lysates were spun at 15,000×g for 10 min at 4° C. and supernatant was quantified for total protein content using the Pierce BCA Protein Assay (Thermo Fisher Scientific).
as §1, with “Primary antibodies used were: Anti-actin antibody (Cat. #MA 1-744) purchased from ThermoFisher Scientific; anti-BTK (Cat. #8547), anti-pBTK (Y223, Cat. #5082), anti-ITK (Cat. #2380), anti-GAPDH (Cat. #5179), anti-IKZF1 (Cat. #9034), and anti-IKZF3 (Cat. #15103) antibodies purchased from Cell Signaling Technology.” left out

For test [3], the target named is BLK (Homo sapiens, UniProt P51451). The experiment in a line: KINOMEscan competition binding assay, BLK. The settings on record: read-out: KINOMEscan percentage of control, BLK.
Sequence of BLK (P51451 whole entry): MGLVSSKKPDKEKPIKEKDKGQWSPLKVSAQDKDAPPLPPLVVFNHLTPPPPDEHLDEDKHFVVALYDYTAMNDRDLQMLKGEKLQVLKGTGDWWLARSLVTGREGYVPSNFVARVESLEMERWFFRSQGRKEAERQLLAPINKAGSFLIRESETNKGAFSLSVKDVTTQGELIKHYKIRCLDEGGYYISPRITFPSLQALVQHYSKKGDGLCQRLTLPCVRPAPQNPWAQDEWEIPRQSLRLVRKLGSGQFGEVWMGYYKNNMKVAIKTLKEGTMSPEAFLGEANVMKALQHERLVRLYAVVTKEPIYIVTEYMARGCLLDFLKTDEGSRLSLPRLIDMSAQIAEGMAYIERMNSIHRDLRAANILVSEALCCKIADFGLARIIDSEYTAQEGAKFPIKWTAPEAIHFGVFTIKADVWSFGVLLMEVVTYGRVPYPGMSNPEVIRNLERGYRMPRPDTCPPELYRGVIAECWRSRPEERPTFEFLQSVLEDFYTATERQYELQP
Test [4] deals with T2, ITK (Homo sapiens, UniProt Q08881).
T2 sequence (Q08881 1-620): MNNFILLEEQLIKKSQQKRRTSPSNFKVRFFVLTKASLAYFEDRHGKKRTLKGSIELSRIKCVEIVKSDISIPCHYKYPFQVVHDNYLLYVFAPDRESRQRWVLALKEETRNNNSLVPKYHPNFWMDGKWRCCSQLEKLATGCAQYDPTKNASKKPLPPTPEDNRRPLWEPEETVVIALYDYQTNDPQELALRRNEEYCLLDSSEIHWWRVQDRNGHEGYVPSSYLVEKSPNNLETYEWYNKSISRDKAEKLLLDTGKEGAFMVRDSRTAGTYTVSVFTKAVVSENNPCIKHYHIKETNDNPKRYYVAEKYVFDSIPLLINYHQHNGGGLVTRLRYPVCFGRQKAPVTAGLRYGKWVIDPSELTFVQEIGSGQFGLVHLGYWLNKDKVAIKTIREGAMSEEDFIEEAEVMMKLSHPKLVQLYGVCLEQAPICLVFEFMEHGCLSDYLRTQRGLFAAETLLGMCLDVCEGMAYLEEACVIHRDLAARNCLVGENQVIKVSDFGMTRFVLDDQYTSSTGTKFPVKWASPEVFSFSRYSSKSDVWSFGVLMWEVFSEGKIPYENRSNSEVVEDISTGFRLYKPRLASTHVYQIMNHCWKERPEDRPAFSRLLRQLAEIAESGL
The experiment in a line: KINOMEscan competition binding assay, ITK. More on the design: purchased DiscoverX (KINOMEscan service). Particulars: read-out: KINOMEscan percentage of control, ITK.

In test [5] the target is T3, MKK7 (Homo sapiens, UniProt O14733).
T3 construct: purchased DiscoverX (KINOMEscan service)
T3 sequence (O14733 1-419): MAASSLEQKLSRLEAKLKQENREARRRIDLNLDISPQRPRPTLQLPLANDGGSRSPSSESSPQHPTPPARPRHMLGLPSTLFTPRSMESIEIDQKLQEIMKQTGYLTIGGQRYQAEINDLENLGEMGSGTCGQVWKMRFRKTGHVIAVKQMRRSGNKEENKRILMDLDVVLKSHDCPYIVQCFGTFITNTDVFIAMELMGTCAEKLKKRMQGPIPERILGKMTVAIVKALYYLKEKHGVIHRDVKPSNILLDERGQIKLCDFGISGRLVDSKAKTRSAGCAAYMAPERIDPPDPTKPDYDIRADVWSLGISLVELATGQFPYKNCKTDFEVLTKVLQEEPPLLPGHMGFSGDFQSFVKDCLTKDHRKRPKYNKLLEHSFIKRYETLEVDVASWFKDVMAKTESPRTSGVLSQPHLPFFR
Kind of test: KINOMEscan competition binding assay, MKK7. Particulars: read-out: KINOMEscan percentage of control, MKK7.

For test [6], the target named is T4, TEC (Homo sapiens, UniProt P42680).
T4 sequence (P42680 1-631): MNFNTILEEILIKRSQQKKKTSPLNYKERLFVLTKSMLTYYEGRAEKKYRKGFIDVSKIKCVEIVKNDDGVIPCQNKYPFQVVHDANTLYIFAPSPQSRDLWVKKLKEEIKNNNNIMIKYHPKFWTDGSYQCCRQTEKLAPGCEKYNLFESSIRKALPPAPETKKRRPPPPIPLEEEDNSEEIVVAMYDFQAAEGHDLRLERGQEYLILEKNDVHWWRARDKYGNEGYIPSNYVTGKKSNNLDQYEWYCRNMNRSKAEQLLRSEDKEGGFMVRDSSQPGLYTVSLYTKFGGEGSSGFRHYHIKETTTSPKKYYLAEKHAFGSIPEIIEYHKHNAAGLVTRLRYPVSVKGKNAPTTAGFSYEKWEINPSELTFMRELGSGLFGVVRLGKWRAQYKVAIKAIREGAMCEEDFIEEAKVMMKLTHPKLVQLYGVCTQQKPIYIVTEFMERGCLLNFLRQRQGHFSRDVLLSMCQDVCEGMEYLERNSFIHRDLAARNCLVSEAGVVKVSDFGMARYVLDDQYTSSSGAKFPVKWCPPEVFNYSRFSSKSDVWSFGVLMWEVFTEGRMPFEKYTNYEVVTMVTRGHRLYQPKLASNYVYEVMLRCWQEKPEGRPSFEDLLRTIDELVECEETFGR
The experiment in a line: KINOMEscan competition binding assay, TEC. Particulars: read-out: KINOMEscan percentage of control, TEC.

Test [7] concerns the target T5, JAK3 (Homo sapiens, UniProt P52333).
T5 construct: purchased DiscoverX (KINOMEscan service)
The experiment in a line: KINOMEscan competition binding assay, JAK3. The settings on record: read-out: KINOMEscan percentage of control, JAK3.

Where two headings read alike, the source gives them in different places.

T1 sequence (P21860 20-1342): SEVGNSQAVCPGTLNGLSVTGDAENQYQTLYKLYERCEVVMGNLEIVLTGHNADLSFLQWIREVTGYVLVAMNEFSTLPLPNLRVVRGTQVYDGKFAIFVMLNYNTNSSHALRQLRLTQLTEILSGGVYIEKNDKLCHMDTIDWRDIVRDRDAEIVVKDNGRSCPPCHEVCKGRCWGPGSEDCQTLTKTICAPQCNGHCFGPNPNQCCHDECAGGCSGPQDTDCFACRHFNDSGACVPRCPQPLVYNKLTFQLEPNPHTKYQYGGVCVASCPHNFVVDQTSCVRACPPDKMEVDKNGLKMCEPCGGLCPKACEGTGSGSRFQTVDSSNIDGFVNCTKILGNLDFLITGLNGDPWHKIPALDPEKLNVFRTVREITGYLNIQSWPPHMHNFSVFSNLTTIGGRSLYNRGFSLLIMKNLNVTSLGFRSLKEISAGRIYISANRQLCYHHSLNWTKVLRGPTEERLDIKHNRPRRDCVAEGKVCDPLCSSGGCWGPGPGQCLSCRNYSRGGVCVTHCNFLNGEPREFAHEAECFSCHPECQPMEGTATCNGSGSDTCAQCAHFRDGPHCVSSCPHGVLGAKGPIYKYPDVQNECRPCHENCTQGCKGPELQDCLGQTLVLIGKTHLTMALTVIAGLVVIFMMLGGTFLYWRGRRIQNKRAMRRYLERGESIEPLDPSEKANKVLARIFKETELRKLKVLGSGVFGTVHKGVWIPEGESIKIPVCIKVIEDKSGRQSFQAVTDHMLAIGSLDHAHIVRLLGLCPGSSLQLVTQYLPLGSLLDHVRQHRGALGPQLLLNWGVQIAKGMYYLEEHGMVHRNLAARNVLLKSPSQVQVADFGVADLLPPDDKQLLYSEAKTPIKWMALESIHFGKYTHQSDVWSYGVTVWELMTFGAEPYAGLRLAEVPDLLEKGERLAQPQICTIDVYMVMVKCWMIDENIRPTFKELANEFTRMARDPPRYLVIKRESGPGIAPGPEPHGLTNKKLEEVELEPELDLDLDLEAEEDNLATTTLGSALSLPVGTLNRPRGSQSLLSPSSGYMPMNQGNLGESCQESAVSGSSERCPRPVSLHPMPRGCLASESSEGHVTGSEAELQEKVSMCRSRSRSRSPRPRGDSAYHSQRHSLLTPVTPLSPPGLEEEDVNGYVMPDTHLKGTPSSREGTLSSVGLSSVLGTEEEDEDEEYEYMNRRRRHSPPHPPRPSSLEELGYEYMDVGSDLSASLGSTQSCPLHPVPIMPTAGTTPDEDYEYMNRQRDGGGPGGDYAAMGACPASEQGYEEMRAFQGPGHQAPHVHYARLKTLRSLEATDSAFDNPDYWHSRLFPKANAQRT
Sequence of BTK (Q06187 whole entry): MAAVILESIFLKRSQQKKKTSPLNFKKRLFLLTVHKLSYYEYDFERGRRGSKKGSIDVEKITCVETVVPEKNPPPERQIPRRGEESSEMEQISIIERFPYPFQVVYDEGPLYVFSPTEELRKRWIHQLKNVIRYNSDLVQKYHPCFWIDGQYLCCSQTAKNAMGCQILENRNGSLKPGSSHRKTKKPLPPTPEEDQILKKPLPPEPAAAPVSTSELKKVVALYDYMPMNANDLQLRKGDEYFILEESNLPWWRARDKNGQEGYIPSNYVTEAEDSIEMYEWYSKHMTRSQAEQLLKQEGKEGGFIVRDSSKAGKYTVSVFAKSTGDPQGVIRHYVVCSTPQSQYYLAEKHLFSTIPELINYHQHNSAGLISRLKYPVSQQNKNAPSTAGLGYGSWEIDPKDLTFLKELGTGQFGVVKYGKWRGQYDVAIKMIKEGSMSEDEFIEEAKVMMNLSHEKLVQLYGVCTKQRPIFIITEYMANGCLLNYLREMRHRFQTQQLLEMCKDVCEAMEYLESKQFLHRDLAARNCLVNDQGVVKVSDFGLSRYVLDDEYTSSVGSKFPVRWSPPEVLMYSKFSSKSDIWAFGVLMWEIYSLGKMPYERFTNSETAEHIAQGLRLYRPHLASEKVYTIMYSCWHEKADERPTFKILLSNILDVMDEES
T5 sequence (P52333 811-1124 limits assumed): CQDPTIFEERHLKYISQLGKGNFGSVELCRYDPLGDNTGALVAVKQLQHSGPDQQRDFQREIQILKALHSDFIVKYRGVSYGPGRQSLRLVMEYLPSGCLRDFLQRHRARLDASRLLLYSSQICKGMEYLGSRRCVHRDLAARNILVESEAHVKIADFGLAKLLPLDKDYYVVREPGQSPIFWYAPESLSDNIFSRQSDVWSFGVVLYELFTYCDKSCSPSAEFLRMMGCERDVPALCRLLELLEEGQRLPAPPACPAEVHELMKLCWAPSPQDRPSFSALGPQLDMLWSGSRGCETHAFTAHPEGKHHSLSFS

As to `Cc1ncsc1-c1ccc(CNC(=O)[C@@H]2C[C@@H](O)CN2C(=O)[C@@H](NC(=O)CCCCCOCCCCCOCCCCCCN2CCC(n3nc(-c4ccc(Oc5ccccc5)cc4)c4c(N)ncnc43)CC2)C(C)(C)C)cc1` [Compound 117, (2S,4R)-1-((S)-2-(6-(5-(6-(4-(4-amino-3-(4-phenoxyphenyl)-1H-pyrazolo[3,4-d]pyrimidin-1-yl)piperidin-1-yl)hexyloxy)pentyloxy)hexanamido)-3,3-dimethylbutanoyl)-4-hydroxy-N-(4-(4-methylthiazol-5-yl)benzyl)pyrrolidine-2-carboxamide], the “HER3 Degradation” value in test [1] is “No”. Further, the DC50 result in test [2] is listed as “No Degradation”.

On to `Cc1ncsc1-c1ccc(CNC(=O)[C@@H]2C[C@@H](O)CN2C(=O)[C@@H](NC(=O)COCCOCCOCCOCCOCCCCCCN2CCC(n3nc(-c4ccc(Oc5ccccc5)cc4)c4c(N)ncnc43)CC2)C(C)(C)C)cc1` [Compound 118, (2S,4R)-1-((S)-25-(4-(4-amino-3-(4-phenoxyphenyl)-1H-pyrazolo[3,4-d]pyrimidin-1-yl)piperidin-1-yl)-2,2-dimethyl-5-oxo-7,10,13,16,19-pentaoxa-4-azapentacosanecarbonyl)-4-hydroxy-N-(4-(4-methylthiazol-5-yl)benzyl)pyrrolidine-2-carboxamide], for which, in test [1], the “HER3 Degradation” value was “No”. Moreover, the DC50 in test [2] (read-out: DC50) is 231 nM. This compound also gave a Max in test [2] (maximal BTK degradation, at 1.0 μM) of 40%.

As to `Cc1ncsc1-c1ccc(CNC(=O)[C@@H]2C[C@@H](O)CN2C(=O)[C@@H](NC(=O)CCCCCOCCOCCOCCOCCCCCCN2CCC(n3nc(-c4ccc(Oc5ccccc5)cc4)c4c(N)ncnc43)CC2)C(C)(C)C)cc1` [Compound 119, (2S,4R)-1-((S)-26-(4-(4-amino-3-(4-phenoxyphenyl)-1H-pyrazolo[3,4-d]pyrimidin-1-yl)piperidin-1-yl)-2,2-dimethyl-5-oxo-11,14,17,20-tetraoxa-4-azahexacosanecarbonyl)-4-hydroxy-N-(4-(4-methylthiazol-5-yl)benzyl)pyrrolidine-2-carboxamide], in test [1], the “HER3 Degradation” value is given as “No”. Further, in test [2], the DC50 entry is on record as “No Degradation”.

For the compound `Cc1ncsc1-c1ccc(CNC(=O)[C@@H]2C[C@@H](O)CN2C(=O)[C@@H](NC(=O)CCCCCOCCOCCOCCOCCOCCCCCCN2CCC(n3nc(-c4ccc(Oc5ccccc5)cc4)c4c(N)ncnc43)CC2)C(C)(C)C)cc1` [Compound 120, (2S,4R)-1-((S)-29-(4-(4-amino-3-(4-phenoxyphenyl)-1H-pyrazolo[3,4-d]pyrimidin-1-yl)piperidin-1-yl)-2,2-dimethyl-5-oxo-11,14,17,20,23-pentaoxa-4-azanonacosanecarbonyl)-4-hydroxy-N-(4-(4-methylthiazol-5-yl)benzyl)pyrrolidine-2-carboxamide], the “HER3 Degradation” value in test [1] is listed as “No”. Besides, in test [2], the DC50 entry was “No Degradation”.

In the case of `C=CC(=O)Nc1cc(-c2nn(C3CCN(CCCOCCCOCCC(=O)Nc4cccc5c4C(=O)N(C4CCC(=O)NC4=O)C5=O)CC3)c3ncnc(N)c23)ccc1Oc1ccccc1` (stereo not drawn) [Compound 121, N-(5-(4-amino-1-(1-(3-(3-(3-(2-(2,6-dioxopiperidin-3-yl)-1,3-dioxoisoindolin-4-ylamino)-3-oxopropoxy)propoxy)propyl)piperidin-4-yl)-1H-pyrazolo[3,4-d]pyrimidin-3-yl)-2-phenoxyphenyl)acrylamide], the “HER3 Degradation” value in test [1] was “No”. Moreover, in test [2], the DC50 result was “No Degradation”.

Consider `C=CC(=O)Nc1cc(-c2nn(C3CCN(CCCCOCCCCOCC(=O)Nc4cccc5c4C(=O)N(C4CCC(=O)NC4=O)C5=O)CC3)c3ncnc(N)c23)ccc1Oc1ccccc1` (stereo not drawn) [Compound 122, N-(5-(4-amino-1-(1-(4-(4-(2-(2-(2,6-dioxopiperidin-3-yl)-1,3-dioxoisoindolin-4-ylamino)-2-oxoethoxy)butoxy)butyl)piperidin-4-yl)-1H-pyrazolo[3,4-d]pyrimidin-3-yl)-2-phenoxyphenyl)acrylamide], for which the “HER3 Degradation” value in test [1] is recorded as “No”. Moreover, in test [2], the DC50 entry is given as “No Degradation”.

For `C=CC(=O)N1CCC[C@@H](n2nc(-c3ccc(Oc4ccccc4)cc3)c3c(N)ncnc32)C1` [ibrutinib, reference compound], the remaining binding at 1 µM is 0.1% in test [3]; less than 10% in test [4]; less than 10% in test [5]; 1.9% in test [6]; less than 10% in test [7].
